What was measured:
CL1-0 cells = assay: NBD-labeled peptide binding to live cells (confocal microscopy); assay type: cell-based, human; settings: NBD-labeled peptides; b53 versus D-Mut, b70 versus SEQ ID NO: 9
Text: FIGS. 28A-28C show MPS peptide binding to live cells. (A) Peptide sequences showing substitution of serine residues in MPS peptide (SEQ ID NO: 9). The serine residues of MPS peptide were replaced either by adding 4 aspartic acids (SEQ ID NO: 14), which are negatively charged and result in making the final peptide less positive, or by adding 4 alanines (SEQ ID NO: 10), which increased membrane affinity. Both the MPS and alanines-substituted (A-Mut) MPS peptides are highly positive charged and interact electrostatically with PIP2 on the phospholipid membrane. In contrast, electrostatic interaction with cell membrane is decreased in aspartates-substituted (D-Mut) MPS peptide (Gambhir, A. et al. (2004) Biophys. J. 86:2188-2207; Rusu, L. et al. (2004) Biophys J. 87:1044-1053; Glaser, M. et al. (1996) J. Biol. Chem. 271:26187-26193; Ellena, J.F. et al. (2003) Biophys. J. 85:2442-2448; McLaughlin, S. et al. (2005) Nature 438:605-611). Figure discloses “MH” domain as SEQ ID NO: 42. […] MPS peptide, D-Mut, and A-Mut MPS peptide were labeled with NBD (4-Chloro-7-Nitrobenz-2-Oxa-1,3-Diazole) dye. After purification of peptides, CL1-0 cells were treated with various NBD-labeled peptides and then subjected to DAPI staining. The NBD-labeled peptide (green) and nucleus counter-stain (blue) were visualized via confocal laser-scanning microscopy. […]

[1] = tested on: MARCKS phosphorylation (Ser159/163); assay: Western blot of MARCKS phosphorylation in peptide-treated cells; assay type: cell-based, human; settings: alanine-substituted peptide
Experimental: The levels of MARCKS phosphorylation in chemoresistant cancer cell lines after 24 hours of MPS or mutant (Mut) peptide treatment. Lysates form 100 μM MPS-or Mut peptide-treated H1650 or H1975cells were subjected to immunoblotting. The sequences of MARCKS MPS peptide consisted of amino acids 152 to 176 from the wild-type protein (SEQ ID NO: 9). The sequences of mutated MPS peptide (Mut) (SEQ ID NO: 14) had the replacement of serine residues (S) by aspartate (D) and are unable to be recognized by PKC. The underline represents the PIP2 binding site.
FIGS. 13A-13G show MPS peptide suppresses cancer cell proliferation and also induces apoptosis in these cells through direct downregulation of MARCKS activation. (A) Determination of MARCKS phosphorylation levels after 24 hours of MPS peptide treatment. Lysates from 1-100 μM MPS peptide-treated H1975 cells were subjected to western blot analysis. (B) Levels of PIP3 in drug resistant cancer cell lines after MPS peptide treatment. Cells were treated with 10, 50 or 100 μM MPS peptide. After 24 hours of treatment, PIP3 lipids were extracted from these cells and analyzed by a PIP3 ELISA kit. *P<0.05 compared with untreated cells. (C) Downregulation of AKT phosphorylation by MPS peptide treatment, but not by Mut peptide. Cells were treated with 100 μM MPS or Mut peptide for 24 hours. Lysates were immunoblotted with the indicated antibodies. (D) Cell viability analysis of six cancer cell lines and human bronchial epithelial cells (HBE1) upon MPS treatment. Cells were incubated with various concentrations of MPS peptide for 72 hours and then subjected to MTS assays. Polylysine served as a peptide control. n=4, *P<0.05 compared with untreated cells (Con). (E) Cells were treated with the indicated concentrations of MPS peptide and colonies were counted after 10 days of treatment using crystal violet staining (F) MPS treatment augments cell death. […] The percentages of apoptotic cells were quantified by flow cytometry (top), and presented as mean±SD of three experiments (bottom). *, P<0.05 versus untreated cells (Con). […]

cancer cells = assay: Anti-cancer activity of alanine-substituted MPS (method not given)

## KKKKKRFAFKKAFKLAGFAFKKNKK [SEQ ID NO: 10, alanines-substituted MPS peptide]
CL1-0 cells
  Peptide-cell interaction: greater peptide-cell interaction
[1]
  Phospho-MARCKS levels in cancer cells: reduce phospho-MARCKS levels
Cancer cells
  Anti-cancer activity compared to MPS peptide of SEQ ID NO: 9: better anti-cancer activity

Source: patent publication US10189881B2, “MPS peptides and use thereof” (The Regents of the University of California, priority 2013, dated 2019)
